From patent publication US20240270762A1, “PENICILLIN-BINDING PROTEIN INHIBITORS” (priority 2021, published 2024)
In brackets after ≈: the same amount, converted by molar mass. Read-outs that look alike come from different tables or passages of the source.

What was measured:
A. baumannii PBP1a = target: T1, A. baumannii PBP1a (Acinetobacter baumannii, UniProt A0ABX6CK30); assay: Bocillin-FL competition binding via gel filtration, A. baumannii PBP1a; settings: competition binding assay using Bocillin-FL via gel filtration; read-out: A. baumannii PBP1a Potency
T1 sequence (A0ABX6CK30 1-851): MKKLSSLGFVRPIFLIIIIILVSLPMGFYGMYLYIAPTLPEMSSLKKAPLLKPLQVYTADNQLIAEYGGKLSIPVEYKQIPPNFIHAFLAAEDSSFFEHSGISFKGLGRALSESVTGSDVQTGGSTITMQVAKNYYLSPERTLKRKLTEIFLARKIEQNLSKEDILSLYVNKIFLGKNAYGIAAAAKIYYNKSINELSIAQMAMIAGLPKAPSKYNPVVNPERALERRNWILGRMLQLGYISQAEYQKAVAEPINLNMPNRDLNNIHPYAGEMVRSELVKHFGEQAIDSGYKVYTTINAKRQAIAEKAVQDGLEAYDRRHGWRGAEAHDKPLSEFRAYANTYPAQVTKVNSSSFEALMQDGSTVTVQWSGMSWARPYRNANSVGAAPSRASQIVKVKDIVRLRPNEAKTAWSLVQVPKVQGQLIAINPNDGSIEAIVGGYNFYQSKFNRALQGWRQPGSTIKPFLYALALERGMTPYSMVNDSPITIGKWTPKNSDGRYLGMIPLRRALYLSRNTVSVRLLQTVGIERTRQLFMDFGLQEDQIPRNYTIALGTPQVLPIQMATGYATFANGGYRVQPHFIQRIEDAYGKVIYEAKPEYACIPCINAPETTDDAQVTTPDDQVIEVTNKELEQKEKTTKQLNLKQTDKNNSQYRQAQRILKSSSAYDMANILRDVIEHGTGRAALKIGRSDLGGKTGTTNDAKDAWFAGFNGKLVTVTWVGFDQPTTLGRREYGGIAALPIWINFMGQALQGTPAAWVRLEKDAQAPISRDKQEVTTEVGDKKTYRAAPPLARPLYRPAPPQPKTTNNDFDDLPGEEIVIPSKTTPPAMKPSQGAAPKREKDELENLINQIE
Method in brief: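 Competitive equilibrium binding with Bocillin-FL reporter: PBP pre-incubated with inhibitor dilutions, Bocillin-FL added, 15 min incubation. Labelled enzyme isolated by size-exclusion spin plates, fluorescence measured; EC50 obtained by fitting bound fraction against inhibitor concentration with a Hill-coefficient model.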

B. pseudomallei Bp82 = assay: microbe, parasite or virus in culture; assay type: cell-based; settings: Burkholderia pseudomallei, BP82, read-out: Minimum inhibitory concentration, B. pseudomallei Bp82
N. gonorrhoeae MS11 = assay: Liquid broth MIC in Fastidious broth; settings: Neisseria gonorrhoeae
A. baumannii CDC-0083 = assay: microbe, parasite or virus in culture; assay type: cell-based; settings: Acinetobacter baumannii, CDC0083, read-out: MIC, A. baumannii CDC-0083
[1] = tested on: B. humptydooensis ATCC BAA-2767; assay: microbe, parasite or virus in culture; assay type: cell-based; settings: Burkholderia humptydooensis, ATCCBAA2767, read-out: Minimum inhibitory concentration (MIC), B. humptydooensis ATCC BAA-2767
[2] = tested on: B. thailandensis ATCC 700388; assay: microbe, parasite or virus in culture; assay type: cell-based; settings: Burkholderia thailandensis, ATCC700388, read-out: Minimum inhibitory concentration (MIC), B. thailandensis ATCC 700388
A. baumannii CDC-0045 = assay: microbe, parasite or virus in culture; assay type: cell-based; settings: Acinetobacter baumannii, CDC0045, read-out: MIC, A. baumannii CDC-0045
[3] = tested on: P. aeruginosa (ΔmexAB-oprM); assay: Broth microdilution MIC in iron-depleted CAMHB (IDM); assay type: cell-based; settings: Pseudomonas aeruginosa; iron-depleted CAMHB (IDM); […]; read-out: Minimum inhibitory concentration, P. aeruginosa ΔmexAB-oprM
A. baumannii ATCC 19606 = assay: microbe, parasite or virus in culture; assay type: cell-based; settings: Acinetobacter baumannii, ATCC19606, read-out: MIC, A. baumannii ATCC 19606
P. aeruginosa CDC-0054 = assay: microbe, parasite or virus in culture; assay type: cell-based; settings: Pseudomonas aeruginosa, CDC0054, read-out: Minimum inhibitory concentration, P. aeruginosa CDC-0054
N. gonorrhoeae CDC-0197 = assay: Liquid broth MIC in Fastidious broth; settings: Neisseria gonorrhoeae
P. aeruginosa CDC-0110 = assay: microbe, parasite or virus in culture; assay type: cell-based; settings: Pseudomonas aeruginosa, CDC0110, read-out: Minimum inhibitory concentration, P. aeruginosa CDC-0110
P. aeruginosa ATCC 35151 = assay: microbe, parasite or virus in culture; assay type: cell-based; settings: Pseudomonas aeruginosa, ATCC35151, read-out: Minimum inhibitory concentration, P. aeruginosa ATCC 35151
P. aeruginosa ATCC 27853 = assay: microbe, parasite or virus in culture; assay type: cell-based; settings: Pseudomonas aeruginosa, ATCC27853, read-out: Minimum inhibitory concentration, P. aeruginosa ATCC 27853
[4] = MS11, read-out: Minimum Inhibitory Concentration (MIC), N. gonorrhoeae MS11
[5] = CDC0197, read-out: Minimum Inhibitory Concentration (MIC), N. gonorrhoeae CDC-0197

| SMILES | EC50 (A. baumannii PBP1a) [µM] | MIC (B. pseudomallei Bp82) [µg/mL] | MIC (N. gonorrhoeae MS11; [4]) [µg/mL] | MIC (A. baumannii CDC-0083) [µg/mL] | MIC [1] [µg/mL] | MIC [2] [µg/mL] | MIC (A. baumannii CDC-0045) [µg/mL] | MIC [3] [µg/mL] | MIC (A. baumannii ATCC 19606) [µg/mL] | MIC (P. aeruginosa CDC-0054) [µg/mL] | MIC (N. gonorrhoeae CDC-0197; [5]) [µg/mL] | MIC (P. aeruginosa CDC-0110) [µg/mL] | MIC (P. aeruginosa ATCC 35151) [µg/mL] | MIC (P. aeruginosa ATCC 27853) [µg/mL] | MIC (N. gonorrhoeae MS11; MS11, read-out: Minimum Inhibitory Concentration, MS11) [µg/mL] | MIC (N. gonorrhoeae CDC-0197; CDC0197, read-out: Minimum Inhibitory Concentration, CDC-0197) [µg/mL] |
| --- | --- | --- | --- | --- | --- | --- | --- | --- | --- | --- | --- | --- | --- | --- | --- | --- |
| CN(CCN1CCN(C(=O)NC(C(=O)N[C@H]2Cc3ccc(F)c(C(=O)O)c3OB2O)c2cc(F)c(O)c(O)c2Cl)C(=O)C1=O)S(=O)(=O)c1ccc(C(N)=O)cc1 (stereo partly drawn) [Example 223, (3R)-3-(2-(4-(2-((4-carbamoyl-N-methylphenyl)sulfonamido)ethyl)-2,3-dioxopiperazine-1-carboxamido)-2-(2-chloro-5-fluoro-3,4-dihydroxyphenyl)acetamido)-7-fluoro-2-hydroxy-3,4-dihydro-2H-benzo[e][1,2]oxaborinine-8-carboxylic acid] | < 10 | < 1 | 16 to 32 (≈ 19.4 to 38.9 µM) | 2 to 4 (≈ 2.43 to 4.86 µM) | < 1 | 2 to 4 (≈ 2.43 to 4.86 µM) | < 1 | < 1 | < 1 | 2 to 4 (≈ 2.43 to 4.86 µM) | > 64 | < 1 | < 1 | 2 to 4 (≈ 2.43 to 4.86 µM) |  |  |
| CN(CCN1CCN(C(=O)NC(C(=O)N[C@H]2Cc3ccc(F)c(C(=O)O)c3OB2O)c2cc(F)c(O)c(O)c2Cl)C(=O)C1=O)S(=O)(=O)c1cccc(C(N)=O)c1 (stereo partly drawn) [Example 224, (3R)-3-(2-(4-(2-((3-carbamoyl-N-methylphenyl)sulfonamido)ethyl)-2,3-dioxopiperazine-1-carboxamido)-2-(2-chloro-5-fluoro-3,4-dihydroxyphenyl)acetamido)-7-fluoro-2-hydroxy-3,4-dihydro-2H-benzo[e][1,2]oxaborinine-8-carboxylic acid] | < 10 | < 1 | > 64 | 2 to 4 (≈ 2.43 to 4.86 µM) | < 1 | 2 to 4 (≈ 2.43 to 4.86 µM) | < 1 | < 1 | < 1 | 2 to 4 (≈ 2.43 to 4.86 µM) | > 64 | < 1 | < 1 | 2 to 4 (≈ 2.43 to 4.86 µM) |  |  |
| CN(CCN1CCN(C(=O)N[C@@H](C(=O)N[C@H]2Cc3ccc(F)c(C(=O)O)c3OB2O)c2cc(F)c(O)c(O)c2Cl)C(=O)C1=O)Cc1cccc(C(N)=O)c1 [Example 225, (R)-3-((R)-2-(4-(2-((3-carbamoylbenzyl)(methyl)amino)ethyl)-2,3-dioxopiperazine-1-carboxamido)-2-(2-chloro-5-fluoro-3,4-dihydroxyphenyl)acetamido)-7-fluoro-2-hydroxy-3,4-dihydro-2H-benzo[e][1,2]oxaborinine-8-carboxylic acid] | 10 to 50 | < 1 | 16 to 32 (≈ 20.7 to 41.4 µM) | < 1 | < 1 | < 1 | < 1 | < 1 | < 1 | 2 to 4 (≈ 2.59 to 5.18 µM) | 16 to 32 (≈ 20.7 to 41.4 µM) | < 1 | < 1 | 2 to 4 (≈ 2.59 to 5.18 µM) |  |  |
| O=C(NCCN1CCN(C(=O)NC(C(=O)N[C@H]2Cc3ccc(F)c(C(=O)O)c3OB2O)c2cc(F)c(O)c(O)c2Cl)C1=O)Nc1cccc(O)c1 (stereo partly drawn) [Example 249, (3R)-3-(2-(2-chloro-5-fluoro-3,4-dihydroxyphenyl)-2-(3-(2-(3-(3-hydroxyphenyl)ureido)ethyl)-2-oxoimidazolidine-1-carboxamido)acetamido)-7-fluoro-2-hydroxy-3,4-dihydro-2H-benzo[e][1,2]oxaborinine-8-carboxylic acid] | 10 to 50 | < 1 |  | < 1 | < 1 | 2 to 4 (≈ 2.73 to 5.46 µM) | < 1 | < 1 | < 1 | 2 to 4 (≈ 2.73 to 5.46 µM) |  | < 1 | < 1 | 2 to 4 (≈ 2.73 to 5.46 µM) | 16 to 32 (≈ 21.8 to 43.7 µM) | > 64 |
